Measurements reported in patent US20030065039A1, “Biologically active 1,3-bis-aromatic-prop-2-en-1-ones, 1,3-bis-aromatic-propan-1-ones, and 1,3-bis-aromatic-prop-2-yn-1-ones” (Statens Serum Institute, priority 1997, published 2003).

Tests used:
[1] = target: NCC (L. major); assay: Effect on L. major NADH-cytochrome c reductase; type: biochemical, Leishmania major; settings: incubation at 28° C. for 5 min
Experimental: FIG. 13. Effect of licochalcone A on Leishmania major NADH-cycochrome c reductase. Membrane rich fraction of parasite was incubated with licochalcone A at 28° C. for 5 min, the remaining enzyme activity was measured. Data are mean ±SEM from 4 different experiments.

[2] = target: T1, SDH (human MNC) (Homo sapiens, UniProt P31040); assay: Effect on human MNC succinate dehydrogenase; type: biochemical; settings: incubation at 28° C. for 5 min
T1 construct: endogenous in cells; host or cells: human blood mononuclear cells (MNC), membrane rich fraction
T1 sequence (P31040 43-664): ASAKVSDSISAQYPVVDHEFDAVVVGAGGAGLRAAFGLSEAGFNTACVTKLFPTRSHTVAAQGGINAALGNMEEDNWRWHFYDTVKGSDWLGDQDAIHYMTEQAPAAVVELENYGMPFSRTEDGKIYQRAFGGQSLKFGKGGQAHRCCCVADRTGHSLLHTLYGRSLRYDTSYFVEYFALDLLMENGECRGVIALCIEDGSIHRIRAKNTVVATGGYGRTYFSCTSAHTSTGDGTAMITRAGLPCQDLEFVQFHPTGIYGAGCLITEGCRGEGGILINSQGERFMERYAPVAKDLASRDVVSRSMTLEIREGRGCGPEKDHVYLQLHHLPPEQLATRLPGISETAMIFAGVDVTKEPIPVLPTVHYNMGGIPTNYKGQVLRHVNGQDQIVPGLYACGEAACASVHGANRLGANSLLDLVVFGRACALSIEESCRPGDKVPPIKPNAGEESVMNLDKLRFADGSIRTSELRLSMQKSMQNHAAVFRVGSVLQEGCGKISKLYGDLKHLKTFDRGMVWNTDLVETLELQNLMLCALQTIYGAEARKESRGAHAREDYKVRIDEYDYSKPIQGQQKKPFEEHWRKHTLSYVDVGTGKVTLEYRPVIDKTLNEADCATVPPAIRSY
T1 sequence (P21912 29-280 partner): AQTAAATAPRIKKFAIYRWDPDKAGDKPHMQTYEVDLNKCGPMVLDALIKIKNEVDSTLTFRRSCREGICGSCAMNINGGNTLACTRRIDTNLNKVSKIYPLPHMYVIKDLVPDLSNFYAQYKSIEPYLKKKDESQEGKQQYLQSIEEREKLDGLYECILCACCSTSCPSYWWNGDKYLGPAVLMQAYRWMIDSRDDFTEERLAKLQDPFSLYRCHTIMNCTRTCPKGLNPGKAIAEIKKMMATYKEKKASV
T1 sequence (Q99643 30-169 partner): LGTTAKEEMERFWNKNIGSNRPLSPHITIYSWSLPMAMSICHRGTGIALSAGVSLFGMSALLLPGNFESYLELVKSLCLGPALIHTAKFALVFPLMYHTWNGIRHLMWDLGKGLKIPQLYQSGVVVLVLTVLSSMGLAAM
T1 sequence (O14521 57-159 partner): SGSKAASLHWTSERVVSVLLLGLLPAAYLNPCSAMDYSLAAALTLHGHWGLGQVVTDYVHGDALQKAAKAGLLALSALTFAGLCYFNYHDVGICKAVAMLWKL

[3] = target: NDH (human MNC); assay: Effect on human MNC NADH dehydrogenase; type: biochemical; settings: incubation at 28° C. for 5 min
Experimental: FIG. 15. Effect of licochalcone A on human MNC NADH dehydrogenase. Membrane rich fraction of parasite was incubated with licochalcone A at 28° C. for 5 min, the remaining enzyme activity was measured. Data are mean ±SEM from 4 different experiments.

[4] = target: SCC (L. major); assay: Effect on L. major succinate-cytochrome c reductase; type: biochemical, Leishmania major; settings: incubation at 28° C. for 5 min
Experimental: FIG. 12. Effect of licochalcone A on Leishmania major succinate-cytochrome c reductase. Membrane rich fraction of parasite was incubated with licochalcone A at 28° C. for 5 min, the remaining enzyme activity was measured. Data are mean ±SEM from 4 different experiments.

[5] = system: parasite mitochondrial dehydrogenase; assay: Parasite mitochondrial dehydrogenase activity; type: biochemical, Leishmania major
[6] = Single dose toxicity in mice; type: in vivo
Experimental: Also in rats, LDlow po>1000 mg/kg was found. Studies carried out later in the project using the dosing schedule, also used to measure effects against the malaria parasites, confirmed the very good oral tolerance to all compounds tested.

[7] = system: Leishmania major; assay: Respiration of Leishmania major (O2 consumption, CO2 production); type: cell-based
[8] = system: NDH (J774); assay: Effect on J774 cells NADH dehydrogenase; type: biochemical; settings: incubation at 28° C. for 5 min
Experimental: FIG. 17. Effect of licochalcone A on J774 cells NADH dehydrogenase. Membrane rich fraction of parasite was incubated with licochalcone A at 28° C. for 5 min, the remaining enzyme activity was measured. Data are mean ±SEM from 4 different experiments.

[9] = target: FRD (L. major); assay: Effect on fumarate reductase of L. major promastigotes; type: biochemical, Leishmania major; settings: incubation at 28° C. for 5 min
Experimental: FIG. 5. Effect of licochalcone A on Leishmania major fumarate reductase. Digitonin treated promastigotes was incubated with licochalcone A at 28° C. 30 min, and the remaining enzyme activity was measured. Data are mean ±SEM from 6 different experiments.
FIG. 6. Effect of licochalcone A on Leishmania major fumarate reductase. KCL-solubilised fumarate reductase was incubated with licochalcone A at 28° C. 30 min, and the remaining enzyme activity was measured. Data are mean ±SEM from 6 different experiments.
Parasites were harvested by centrifugation at 1000 g for 10 min, and were washed 2 times in an isotonic phosphate saline buffer (50 mM sodium phosphate, pH 7.2, 90 mM NaCl, 5 mM KCl). […]
NADH-FRD activity was determined as the rate of NADH-oxidation upon addition of 1 mM fumarate in the KCl-solubilized fraction. The reaction was monitored spectrophotometrically at 340 nm ((=6.2 mM^−1 cm^−1) using 100 μM NADH and usually 0.1 mg protein in both reference and sample cuvettes. The measurement was carried out in a Shimadzu UV-190 double-beam spectrophotometer. Protein concentrations were determined using a Bio-Rad protein assay (Bio-Rad Laboratories, 200 Alfred Nobel Dr. Hercules, Calif. 94547, USA).
KCl solubilized fraction of Leishmania major promastigotes was incubated with different concentrations of various oxygenated chalcones at 28° C. and the remaining FRD activity was measured.

[10] = system: Peptostreptococcus; assay: Effect on anaerobic bacteria (growth); type: cell-based; settings: at a concentration of 5 μg/ml
[11] = system: Clostridium perfringes; assay: Effect on anaerobic bacteria (growth); type: cell-based; settings: at a concentration of 5 μg/ml
[12] = system: Bacteroides fragilis; assay: Effect on anaerobic bacteria (growth); type: cell-based; settings: at a concentration of 5 μg/ml

COc1cc(/C=C/C(=O)c2ccc(C3CCCCC3)cc2)cc(OC)c1 [PH104, 3,5-dimethoxy-4′-cyclohexylchalcone]
melting point: 75.5 to 76.2 °C

C=CC(C)(C)c1cc(/C=C/C(=O)c2ccc(O)cc2)c(OC)cc1O [Licochalcone A]
IC50 [1]: 387.5 μg/mg protein | IC50 [2]: 799.7 μg/mg protein | IC50 [3]: 454.2 μg/mg protein | IC50 [4]: 647.6 μg/mg protein | activity of the parasite mitochondrial dehydrogenase [5]: inhibited the activity of the parasite mitochondrial dehydrogenase | LDlow po [6]: > 1000 mg/kg | respiration of the parasite (O2 consumption, CO2 production) [7]: inhibited the respiration of the parasite in a concentration-dependent manner | IC50 [8]: 547.7 μg/mg protein | IC50 [9]: 54.7 μg/mg protein | growth of Peptostreptococcus [10]: completely inhibted | growth of Clostridium perfringes [11]: completely inhibted | growth of Bacteroides fragilis [12]: completely inhibted
